One data set concerns Mycobacterium avium. As to the kind of experiment: Antibacterial activity against Mycobacterium avium ATCC 25291 assessed as inhibition of bacterial growth incubated for 2 to 3 weeks by resazurin dye based assay. The data set is classed as functional. As to conditions: time 2-3 weeks.
Data set [1] relates to Mycobacterium tuberculosis. As to the kind of experiment: Antimycobacterial activity against Mycobacterium tuberculosis H37Rv assessed as reduction in bacterial cell growth by resazurin reduction method. Type of data set: functional. (The colour change of resazurin is a common sign of viable cells or microbes.)
A short description of data set [2]: Aqueous solubility of compound in PBS at pH 6.5 incubated for 24 hrs by HPLC-MS/MS analysis. The data set is classed as physicochemical.
Data set [3] in a line: Aqueous solubility of compound at pH 2.0 measured for 1 hr by UV-plate reader analysis. Type of data set: physicochemical. The settings on record: buffer.
The test system of data set [4] is Mycobacterium tuberculosis. As to the kind of experiment: Antimycobacterial activity against Mycobacterium tuberculosis H37Rv mc2 6206 assessed as inhibition of bacterial growth measured after 7 days by visual analysis. The data set is classed as functional. As to conditions: H37Rv mc2 6206, 168 h, time 7 day.
Data set [5] concerns Mycolicibacterium smegmatis. As to the kind of experiment: Antimycobacterial activity against Mycobacterium smegmatis ATCC607 assessed as inhibition of bacterial growth measured after 48 hrs by broth microdilution method. The data set is classed as functional. On the technique in general: In broth dilution the organism is exposed to a series of concentrations in liquid medium.

The test system of another data set is Acinetobacter baumannii. As to the kind of experiment: Antibacterial activity against Acinetobacter baumannii harboring RpoB H535Q mutant assessed as fold change in MIC incubated for 20 hrs by CLSI based microbroth dilution method. The data set is classed as functional.
For data set [6], the system named is Mycolicibacterium smegmatis. As to the kind of experiment: Antimycobacterial activity against Mycobacterium smegmatis 700084 assessed as inhibition of microbial growth incubated for 48 hrs by resazurin dye based broth microdilution method. The data set is classed as functional.
For data set [7], the system named is Mycobacterium tuberculosis. As to the kind of experiment: Antibacterial activity against Mycobacterium tuberculosis H37Rv assessed as bacterial growth inhibition. Type of data set: functional.
Data set [8] in a line: Aqueous solubility of compound at pH 7.4 measured for 1 hr by UV-plate reader analysis. The data set is classed as physicochemical. The settings on record: buffer.
Data set [9] concerns Mycobacterium tuberculosis. As to the kind of experiment: Antimycobacterial activity against Mycobacterium tuberculosis H37Rv assessed as inhibition of bacterial growth incubated for 7 to 14 days by MABA assay. The data set is classed as functional. The settings on record: time 7-14 day.
Data set [10] is described as follows: Aqueous solubility of compound at pH 7.4. Type of data set: physicochemical. As to conditions: buffer.
For data set [11], the system named is Mycobacterium tuberculosis. As to the kind of experiment: Antibacterial activity against Mycobacterium tuberculosis H37Rv assessed as reduction in microbial growth. The data set is classed as functional.
Data set [12] relates to Mycobacterium tuberculosis. As to the kind of experiment: Antibacterial activity against Mycobacterium tuberculosis H37Rv assessed as inhibition of bacterial growth incubated for 6 days by microplate alamar blue assay. The data set is classed as functional. As to conditions: 144 h, time 6 day.
Data set [13] has as its system Mycobacterium tuberculosis. As to the kind of experiment: Antimycobacterial activity against Mycobacterium tuberculosis K204 assessed as inhibition of bacterial growth measured after 6 days by alamar blue dye based assay. The data set is classed as functional. As to conditions: K204, 144 h, time 6 day.
A short description of data set [14]: Aqueous solubility of compound at pH 7.4 by HPLC-MS/MS analysis. Type of data set: physicochemical. The settings on record: buffer.

≈ marks a conversion by molar mass, not a printed value. Bounds are passed on as bounds.

Consider `O=[N+]([O-])c1cn2c(n1)OC[C@@H](OCc1ccc(-c3ccc(OC(F)(F)F)c(Cl)c3)cc1)C2`, for which the MIC (in general, the lowest concentration that inhibits growth of the organism) in the data set on Mycobacterium avium came to 0.03 µM (≈ 0.0141 µg/mL). Turning to `C[C@]1(CN2CCc3nc(-c4ccccc4)ccc3C2)Cn2cc([N+](=O)[O-])nc2O1`, the MIC in [1] was less than 0.031 mg/L. Further, in [2], the solubility (usually the concentration that dissolves in the medium under given conditions) at 24 h was determined as 9.41 µM (≈ 3.68 µg/mL). Moreover, the solubility at 1 h in data set [3] came out at 143 µM (≈ 56.2 µg/mL).

For `C[C@]1(COc2ccc(N3CCC(Oc4ccc(OC(F)(F)F)cc4)CC3)cc2)Cn2cc([N+](=O)[O-])nc2O1`, the minimum inhibitory concentration (MIC) was found to be 0.007 mg/L (≈ 0.0131 µM) in data set [4] and 0.03 mg/L (≈ 0.0561 µM) in [5].

Take `O=[N+]([O-])c1cn2c(n1)OC[C@@H](OCc1ccc(-c3ccc(OC(F)(F)F)cc3)cc1)C2`: the MIC in the data set with Mycobacterium avium came out at 0.035 µM (≈ 0.0152 µg/mL). With `C[C@]1(CN2CCc3nc(-c4ccc(F)cc4)ccc3C2)Cn2cc([N+](=O)[O-])nc2O1`, in data set [1], the minimal inhibitory concentration (MIC) came to 0.25 mg/L (≈ 0.611 µM). The concentration in solution in data set [2] (solubility at 24 h) was 3.35 µM (≈ 1.37 µg/mL). Moreover, the solubility at 1 h in data set [3] was 130 µM (≈ 53 µg/mL). As to `O=[N+]([O-])c1cn2c(n1)OC[C@@H](OCc1ccc(OC(F)(F)F)cc1)C2` [PRETOMANID], the “fold change (FC)” value in the data set with Acinetobacter baumannii is listed as more than 13. In addition, the minimum inhibitory concentration (MIC) in data set [5] worked out at 0.03 mg/L (≈ 0.0835 µM); in data set [6], 0.03 mg/L. Consider `C[C@]1(COc2ccc(S(=O)(=O)N3CCOCC3)cc2)Cn2cc([N+](=O)[O-])nc2O1`, for which the MIC in data set [7] worked out at 0.37 mg/L (≈ 0.872 µM). The solubility at 1 h in data set [8] came out at 20 µg/mL (≈ 47.1 µM). For `C[C@]1(CN2CCc3nc(-c4cc(F)c(F)c(F)c4)ccc3C2)Cn2cc([N+](=O)[O-])nc2O1`, in [1], the MIC came out at 0.08 mg/L (≈ 0.18 µM). Also, the solubility at 24 h in data set [2] is less than 1 µM. Also, the solubility at 1 h in data set [3] is more than 200 µM. Consider `O=[N+]([O-])c1cn2c(n1)OC[C@@H](OCc1ccc(-c3ccc(OC(F)(F)F)cc3)nc1)C2` [TBA-354], for which the MIC in data set [9] was determined as 0.005 µM (≈ 0.00218 µg/mL). This compound had a solubility in [10] of 2.3 µg/mL (≈ 5.27 µM). `C[C@]1(COc2ccc(-n3cc(COc4ccc(OC(F)(F)F)cc4)nn3)cc2)Cn2cc([N+](=O)[O-])nc2O1`: in [11], the MIC is 0.12 mg/L. Further, the solubility at 1 h in data set [8] was less than 1 µg/mL.

In the case of `O=[N+]([O-])c1cn2c(n1)OC[C@@H](OCc1ccc(-c3ccc(OC(F)(F)F)c(F)c3)nc1)C2`, the MIC in data set [9] was found to be 0.025 µM (≈ 0.0114 µg/mL). This compound also gave a solubility in data set [10] of 3 µg/mL (≈ 6.6 µM). Regarding `COc1nc2ccc(Br)cc2cc1[C@@H](c1ccccc1)[C@@](O)(CCN(C)C)c1cccc2ccccc12` [BEDAQUILINE], in data set [5], the MIC came to 0.015 mg/L (≈ 0.027 µM).

`COc1nc2ccc(C#N)cc2cc1[C@H](c1ccccc1)[C@](O)(CCN(C)C)c1ccccc1`: the MIC in [12] turned out to be 0.09 mg/L (≈ 0.199 µM). Take `Cn1nc(-c2ccc(OC(F)(F)F)cc2)cc1CO[C@@H]1COc2nc([N+](=O)[O-])cn2C1`: the MIC in data set [13] was 0.06 µM (≈ 0.0264 µg/mL). For the same compound, the solubility in [14] was determined as 23 µg/mL (≈ 52.4 µM).

For the compound `O=[N+]([O-])c1cn2c(n1)OC[C@@H](OCc1nnn(-c3ccc(OC(F)(F)F)cc3)n1)C2`, the MIC in data set [13] came to 0.035 µM (≈ 0.015 µg/mL). As to `O=[N+]([O-])c1cn2c(n1)OC[C@@H](OCc1ccc(-c3ccc(OC(F)(F)F)c(F)c3)cc1)C2`, the MIC in the data set with Mycobacterium avium turned out to be 0.03 µM (≈ 0.0136 µg/mL). For `O=[N+]([O-])c1cn2c(n1)OC[C@@H](OCc1ccn(-c3ccc(OC(F)(F)F)cc3)n1)C2`, the MIC in data set [13] was 0.05 µM (≈ 0.0213 µg/mL).

Source of the values: ChEMBL document CHEMBL5528062 (J Med Chem, 2024).
